The structures appear in SMILES notation.

T1 sequence (Q05941 23-502): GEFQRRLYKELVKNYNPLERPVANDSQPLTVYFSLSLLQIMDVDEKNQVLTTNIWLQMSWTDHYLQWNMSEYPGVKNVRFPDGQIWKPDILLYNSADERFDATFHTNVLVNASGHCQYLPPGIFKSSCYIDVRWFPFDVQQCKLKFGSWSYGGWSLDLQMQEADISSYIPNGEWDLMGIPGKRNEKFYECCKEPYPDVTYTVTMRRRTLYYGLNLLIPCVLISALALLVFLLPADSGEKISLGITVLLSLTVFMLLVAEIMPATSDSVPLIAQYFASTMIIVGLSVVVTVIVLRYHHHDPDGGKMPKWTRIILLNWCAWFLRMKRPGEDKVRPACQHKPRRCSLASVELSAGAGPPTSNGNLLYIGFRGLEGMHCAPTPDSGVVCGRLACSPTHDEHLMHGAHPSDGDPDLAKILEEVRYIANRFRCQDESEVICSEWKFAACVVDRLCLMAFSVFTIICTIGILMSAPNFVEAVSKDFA

The test has as its target T1, α7 nAChR (rat α7/CHO cells) (Rattus norvegicus, UniProt Q05941).
T1 construct: expressed in transfected cells; host or cells: CHO cells (α7/CHO)
The test is described as follows: Evaluation of modulators of α7 nAChRs using the IonFlux HT automated patch clamp system (potentiation of EC20 ACh-evoked currents). In kind it is cell-based. Conditions: percent potentiation of ACh (EC20, approx. 60 μM) response in α7/CHO cells; 6-point dose response 0.03-10 μM; whole cell patch clamp. As for the experimental part:
Evaluation of Modulators of α7 nAChRs Using the IonFlux^HT Automated Patch Clamp System
Acetylcholine was freshly prepared for each plate run and used at an EC20 concentration (approximately 60 μM for rat α7/CHO) to induce α7 nAChR currents on the IonFlux^HT. To prepare the ACh solution for a single plate, 6 μl of the 100 mM ACh stock was diluted into 10 ml of 0.3% DMSO/external solution
Test compounds were prepared for a 6-point dose response from 0.03-10 μM. Working stocks were prepared from serial dilutions of 10 mM DMSO stock solutions to give a final DMSO concentration of 0.3%. 80 μl of the final concentration of each compound was added to the appropriate wells in an IonFlux^HT assay plate.
2×T175 flasks of α7/CHO cells (˜60-70% confluent) were washed twice with PBS and trypsinized (2 ml) for 3.5 minutes at 37° C./5% CO2. Cells were collected in F-12K complete media, counted and the number required for the assay was calculated, for example, 2×10^6 cells in a final volume of 670 μl of external solution were required to load one zone (one quarter) of an IonFlux^HT assay plate. The correct number of cells was pelleted by centrifuge, the supernatant was discarded and the cell pellet was resuspend in external solution at the required concentration so that cells were added in a volume of 80 μl per well to the IonFlux^HT assay plate.
Calculation of the Effect of Compounds on ACh Mediated Currents in α7 nAChRs:
The effect of test compounds on EC20 ACh-evoked currents was calculated by the formula: […]
The rinse protocol was the initial step in preparation of the IonFlux^HT plate. 80 μl of MilliQ water was added to every well (except Out wells) and the IonFlux^HT assay plate was run through the water rinse protocol on the machine. At the end of the run, the water was discarded from the wells. This action was repeated twice.
Briefly, to prepare the plate for the assay aliquots of cells, compounds and internal and external solutions were added to wells of the prepared IonFlux^HT plate (80 μl/well) (solutions made to manufacturer's specifications). Automated whole cell patch-clamp recordings were made using the standard IonFlux^HT single application protocol. Vacuum was held at 6 psi/hg throughout the experiment and membrane potential was held at −80 mV for 35 sec and then at −60 mV during data acquisition. Two ACh (EC20) pulses were applied at the beginning of the assay, 90 seconds apart, to provide an ACh baseline response then cells were perfused with modulators for 89 sec before ACh (EC20) was applied for 1 s. The calculation of percent potentiation of the acetylcholine response for each well was performed by the data analysis software supplied with the IonFlux^HT.
The following compounds were tested in accordance with the above-procedure for activity and the EC50 values determined are reported: […]
In the case of `COc1ccc(Cl)cc1OC[C@H]1[C@H](c2ccc(NS(C)(=O)=O)cc2)C1(C)C` (single isomer, unassigned) [Exp. 5], the EC50 amounted to 0.193 µM.

For `COc1ccc(OC[C@H]2[C@H](c3ccc(NS(C)(=O)=O)cc3)C2(C)C)cn1` (single isomer, unassigned) [Exp. 6], the EC50 came to 0.596 µM. Then `Cc1cc(F)ccc1OC[C@H]1[C@H](c2ccc(NS(C)(=O)=O)cc2)C1(C)C` (single isomer, unassigned) [Exp. 7], with 1.05 µM; and `Cc1cc(F)ccc1OC[C@H]1[C@H](c2ccc(NS(N)(=O)=O)cc2)C1(C)C` (single isomer, unassigned) [Exp. 8], with 0.517 µM; and `Cc1ccc(F)cc1OC[C@H]1[C@H](c2ccc(NS(N)(=O)=O)cc2)C1(C)C` (single isomer, unassigned) [Exp. 9], with 1.75 µM.

In the case of `CC1(C)[C@@H](COc2ccc(F)cc2C(F)(F)F)[C@@H]1c1ccc(S(N)(=O)=O)cc1` (single isomer, unassigned) [Exp. 10], the EC50 amounted to 0.429 µM. As to `COc1ccc(Cl)cc1OC[C@H]1[C@H](c2ccc(S(N)(=O)=O)cc2)C1(C)C` (single isomer, unassigned) [Exp. 11], the EC50 came to 3.64 µM. Then `COc1ccc(Cl)cc1OC[C@@H]1[C@@H](c2ccc(S(N)(=O)=O)cc2)C1(C)C` (single isomer, unassigned) [Exp. 12], with 1.35 µM. Under `Cc1ccc(SC[C@H]2[C@H](c3ccc(S(N)(=O)=O)cc3)C2(C)C)cc1` (single isomer, unassigned) [Exp. 13] stands 0.07 µM; under `COc1ccc(Cl)cc1SC[C@@H]1[C@@H](c2ccc(S(N)(=O)=O)cc2)C1(C)C` (single isomer, unassigned) [Exp. 14], 0.452 µM; under `Cc1ccc(SC[C@@H]2[C@@H](c3ccc(S(N)(=O)=O)cc3)C2(C)C)cc1` (single isomer, unassigned) [Exp. 15], 0.075 µM.

For `COc1ccc(Cl)cc1SC[C@H]1[C@H](c2ccc(S(N)(=O)=O)cc2)C1(C)C` (single isomer, unassigned) [Exp. 16], the EC50 is 0.125 µM. For the molecule `COc1ccc(OC[C@H]2[C@H](c3ccc(NS(N)(=O)=O)cc3)C2(C)C)cn1` (single isomer, unassigned) [Exp. 17], the EC50 stood at 4.36 µM. Then `Cc1ccc(OC[C@H]2[C@H](c3ccc(NS(N)(=O)=O)cc3)C2(C)C)cn1` (single isomer, unassigned) [Exp. 18], with 2.3 µM. Under `Cc1ncccc1OC[C@H]1[C@H](c2ccc(NS(C)(=O)=O)cc2)C1(C)C` (single isomer, unassigned) [Exp. 19] stands 0.35 µM; under `Cc1ncccc1OC[C@H]1[C@H](c2ccc(NS(N)(=O)=O)cc2)C1(C)C` (single isomer, unassigned) [Exp. 20], 3.3 µM. Then `COc1ccc(OC[C@@H]2[C@@H](c3ccc(S(N)(=O)=O)cc3)C2(C)C)c(OC)n1` (single isomer, unassigned) [Exp. 21], with 3.88 µM; and `CC1(C)[C@H](COc2cc(F)ccc2OC(F)F)[C@H]1c1ccc(S(N)(=O)=O)cc1` (single isomer, unassigned) [Exp. 22], with 0.743 µM; and `COc1cc(Cl)ccc1OC[C@H]1[C@H](c2ccc(NS(N)(=O)=O)cc2)C1(C)C` (single isomer, unassigned) [Exp. 23], with 0.546 µM.

`COc1cc(F)ccc1OC[C@H]1[C@H](c2ccc(NS(N)(=O)=O)cc2)C1(C)C` (single isomer, unassigned) [Exp. 24]: the EC50 came out at 0.906 µM.

In the case of `CC1(C)[C@@H](COc2cccnc2)[C@@H]1c1ccc(S(N)(=O)=O)cc1` (single isomer, unassigned) [Exp. 25], the EC50 is 4.16 µM. Under `COc1ccc(OC[C@H]2[C@H](c3ccc(S(N)(=O)=O)cc3)C2(C)C)c(OC)n1` (single isomer, unassigned) [Exp. 26] stands 0.606 µM; under `Cc1ccc(OC[C@@H]2[C@@H](c3ccc(S(N)(=O)=O)cc3)C2(C)C)cn1` (single isomer, unassigned) [Exp. 27], 3.97 µM.

The values are drawn from patent publication US9994518B2, “Alpha-7 nicotinic acetylcholine receptor modulators and uses thereof” (MERCK SHARP & DOHME CORP., priority 2014, dated 2018).
